Laboratory results published in patent US20070037193A1, “Modulation of peroxisome proliferator-activated receptors” (priority 2005, published 2007).

How the values were obtained:
PGR3/ZADH2 = assay: Substrate specificity of PGR3/ZADH2; assay type: biochemical; conditions: 15-keto PGE2 replaced with the test substrate
Method: (§1) Enzymatic activity was determined as follows. 10 μg of the recombinant mouse or human PGR3/ZADH2 protein was incubated at 37° C. in a reaction buffer containing 0.1IM Tris-HCl (pH7.4), 0.5 mM NADPH, and 0.57 mM 15-keto PGE2. The reaction was conducted at 37° C. in the dark for 10 minutes and terminated by adding 700 μl of a buffer which contained 50 mM potassium hydrogen phthalate, pH 3.0, and 1% Tween 20. 200 μl of a color development reagent, which contained 790 μM indonitrotetrazolium chloride, 60 μM phenazene methosulfate, and 1% Tween 20, was added to oxidize any unreacted NADPH. Absorbance at 490 nm was measured by an ELISA plate reader. A standard curve was generated using reaction buffers containing serially diluted amounts of NADPH.
Substrate specificity of PGR3/ZADH2 was determined using the just-described procedure, except that 15-keto PGE2 was replaced with each of six prostaglandin substrates, each of three downstream metabolites, or leukotriene B4.

endogenous PPAR = assay: Reporter gene assay of endogenous PPAR activity in differentiating 3T3-L1 cells; assay type: cell-based; conditions: 3T3-L1 cells induced to differentiate for two days
Method: (§2) The effect of prostaglandin on PPAR-gamma activity in adipocytes was investigated. After treatment with a medium that induces cell differentiation, 3T3-L1 cells were treated from day 2 to 4 during adipogenesis with 14 μM 15-keto PGE2, 13,14-dihydro-15-keto PGE2, 15-keto PGF2α, 13,14-dihydro-15-keto PGF2α, or 4.5 μM of BRL49653, a PPAR-gamma agonist. See Forman et al., Cell (1995) 83:803-812. At day 6, aggregates of lipid droplets were stained with oil-red O for observation. […] After being induced to differentiate for two days, the 3T3-L1 cells were transfected with a reporter gene.

3T3-L1 cells = assay: Adipogenesis in 3T3-L1 cells, oil-red O staining of lipid droplets; assay type: cell-based; conditions: 14 μM from day 2 to 4; staining at day 6
Method: as §2

PPAR-gamma = molecular target: T1, PPAR-gamma (Homo sapiens, UniProt P37231); assay: GAL4-PPAR ligand-binding domain luciferase reporter in 3T3-L1 cells; assay type: cell-based
T1 construct: expressed in transfected cells; host or cells: 3T3-L1 cells
T1 sequence (P37231 238-503 limits assumed): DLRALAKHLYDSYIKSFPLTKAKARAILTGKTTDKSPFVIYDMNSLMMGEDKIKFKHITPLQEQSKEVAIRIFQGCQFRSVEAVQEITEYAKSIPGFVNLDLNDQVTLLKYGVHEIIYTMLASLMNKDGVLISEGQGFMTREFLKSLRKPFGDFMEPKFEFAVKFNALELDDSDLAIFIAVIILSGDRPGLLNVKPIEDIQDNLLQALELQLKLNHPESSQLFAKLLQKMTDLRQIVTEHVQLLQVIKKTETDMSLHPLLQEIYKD
From the text: A luciferase reporter gene was transfected to 3T3-L1 cells together with the ligand-binding domain of PPAR-alpha, PPAR-gamma or PPAR-delta fused to a yeast GAL4 DNA-binding domain.

PPAR-gamma target genes = assay: Protein expression of adipogenesis-specific PPAR-gamma target genes in 3T3-L1 cells; assay type: cell-based
From the text: Also examined was the ability of 15-keto PGE2 to induce protein expression of adipogenesis-specific, PPAR-gamma target genes, i.e., IRS-1 and -2.

Human PGR3/ZADH2 = molecular target: T2, Human PGR3/ZADH2 (Homo sapiens, UniProt Q8N4Q0); assay: PGR3/ZADH2 enzyme inhibition assay (reduction of 15-keto-PGE2, NADPH consumption); assay type: biochemical; conditions: 50 μM compound, No Inhibitor = 100
T2 construct: GST; made in house; host or cells: E. coli
T2 sequence (Q8N4Q0 1-377): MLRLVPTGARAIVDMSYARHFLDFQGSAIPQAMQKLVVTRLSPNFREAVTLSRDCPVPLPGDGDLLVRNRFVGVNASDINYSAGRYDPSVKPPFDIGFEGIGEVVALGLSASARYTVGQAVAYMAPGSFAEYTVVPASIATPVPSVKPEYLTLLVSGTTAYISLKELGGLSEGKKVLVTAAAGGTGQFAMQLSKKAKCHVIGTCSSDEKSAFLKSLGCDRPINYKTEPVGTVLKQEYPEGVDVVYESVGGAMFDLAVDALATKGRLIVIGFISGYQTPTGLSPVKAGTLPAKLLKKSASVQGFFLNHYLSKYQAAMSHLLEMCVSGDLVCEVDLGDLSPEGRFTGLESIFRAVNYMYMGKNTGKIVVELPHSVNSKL
Method: as §1
(§3) Compounds 1-49 were tested for their inhibitory effects on PGR3/ZADH2 activity. These compounds are either commercially available (e.g., from Sigma-Aldrich, St. Louis, Mo.) or can be prepared from methods known in the art. The inhibition assay was performed following the procedure described above. Different concentrations of PGR3/ZADH2 inhibitors were added to the reaction mixture and incubated for 2 hours at 37° C.
(§4) More specifically, 50 μM of compounds 8, 12, 13, and 27, and 25 μM of tri-fluorobenzyl-2-hydroxycinnamate (compound 22) were added to the PGR3/ZADH2 enzyme reaction system and the ability of enzyme to reduce 15-keto-PGE2 were measured.

Mouse PGR3/ZADH2 = molecular target: T3, Mouse PGR3/ZADH2 (Mus musculus, UniProt Q8BGC4); assay: as above; assay type: biochemical; conditions: 50 μM compound, No Inhibitor = 100
T3 construct: GST; made in house; host or cells: E. coli
T3 sequence (Q8BGC4 1-377): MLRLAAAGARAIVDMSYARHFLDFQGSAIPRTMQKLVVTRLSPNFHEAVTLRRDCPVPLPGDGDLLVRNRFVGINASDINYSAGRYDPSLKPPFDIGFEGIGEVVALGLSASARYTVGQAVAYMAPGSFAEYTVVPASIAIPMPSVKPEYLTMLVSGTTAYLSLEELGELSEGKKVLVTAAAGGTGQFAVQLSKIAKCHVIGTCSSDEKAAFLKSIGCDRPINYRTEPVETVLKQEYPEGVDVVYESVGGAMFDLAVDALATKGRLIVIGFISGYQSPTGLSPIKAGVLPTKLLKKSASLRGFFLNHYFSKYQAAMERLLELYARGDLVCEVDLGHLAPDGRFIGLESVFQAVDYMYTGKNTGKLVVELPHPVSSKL
Method: as §1, §3, §4

## CCCCCC(=O)CC[C@@H]1[C@@H](C/C=C\CCCC(=O)O)[C@@H](O)C[C@H]1O [13,14-dihydro-15-keto PGF2α]
PGR3/ZADH2
  specific activity as substrate of PGR3/ZADH2: no specific activity was detected
Endogenous PPAR
  endogenous PPAR activity (reporter gene): failed to increase PPAR activity

## CCCCCC(=O)/C=C/[C@H]1[C@H](O)CC(=O)[C@@H]1C/C=C\CCCC(=O)O [15-keto PGE2]
3T3-L1 cells
  adipogenesis (lipid droplets, oil-red O): effectively enhanced adipogenesis at a level similar to BRL49653
Endogenous PPAR
  endogenous PPAR activity (reporter gene): enhanced endogenous PPAR activity significantly
PPAR-gamma
  activation of PPAR-gamma (GAL4 fusion, luciferase reporter): activated PPAR-gamma
PPAR-gamma target genes
  amount of IRS-1 protein: did not increase the amount of IRS-1 protein
PPAR-gamma target genes; added with MIX, insulin and dexamethasone
  PPAR-gamma1 and PPAR-gamma2 protein expression: significantly enhanced PPAR-gammal and PPAR-gamma2 expression
PPAR-gamma target genes; even in the absence of MIX
  expression of aP2: strongly induced expression of aP2
PPAR-gamma target genes; in the presence of insulin and dexamethasone
  IRS-2 expression: enhanced the expression to a level similar to MIX

## O=c1c(O)c(-c2ccc(O)c(O)c2)oc2ccccc12 [Compound 27]
Human PGR3/ZADH2
  activity at 50 µM: 91.1%
Mouse PGR3/ZADH2
  activity at 50 µM: 87.4%

## COc1cc(/C=C/C(=O)c2cc(Br)ccc2O)cc(OC)c1OC [Compound 13]
Human PGR3/ZADH2
  activity at 50 µM: 51.1%
Mouse PGR3/ZADH2
  activity at 50 µM: 37.1%

## COc1cc(/C=C/C(=O)c2ccccc2O)cc(OC)c1OC [Compound 12]
Human PGR3/ZADH2
  activity at 50 µM: 27.5%
Mouse PGR3/ZADH2
  activity at 50 µM: 6.4%

## CCCCCC(=O)CCC1C(=O)CC(O)C1C/C=C\CCCC(=O)O (centres unmarked) [13,14-dihydro-15-keto PGD2]
PGR3/ZADH2
  specific activity as substrate of PGR3/ZADH2: no specific activity was detected

## CCCCC/C=C\C[C@@H](O)/C=C/C=C/C=C\[C@@H](O)CCCC(=O)O [leukotriene B4]
PGR3/ZADH2
  specific activity as substrate of PGR3/ZADH2: no specific activity was detected

## CCCCC[C@H](O)/C=C/[C@@H]1[C@@H](CC(=O)CCCCC(=O)O)[C@@H](O)C[C@H]1O [6-keto PGF1α]
PGR3/ZADH2
  specific activity as substrate of PGR3/ZADH2: no specific activity was detected

## CCCCCC(=O)/C=C/[C@H]1[C@H](O)CC(=O)[C@@H]1CCCCCCC(=O)O [15-keto PGE1]
PGR3/ZADH2
  specific activity as substrate of PGR3/ZADH2: reacted specifically

## CCCCC[C@H](O)/C=C/[C@@H]1[C@@H](C/C=C\CCCC(=O)O)[C@@H](O)C[C@@H]1O [Compound 11b-PGF2α, 11b-PGF2α]
PGR3/ZADH2
  specific activity as substrate of PGR3/ZADH2: no specific activity was detected

## CCCCCC(=O)CC[C@H]1[C@H](O)CC(=O)[C@@H]1C/C=C\CCCC(=O)O [13,14-dihydro-15-keto PGE2]
PGR3/ZADH2
  specific activity as substrate of PGR3/ZADH2: no specific activity was detected
Endogenous PPAR
  endogenous PPAR activity (reporter gene): failed to increase PPAR activity

## CCCCC[C@H](O)/C=C/[C@@H]1[C@@H](C/C=C\CCCC(=O)O)[C@H](O)C[C@H]1O [PGF2β]
PGR3/ZADH2
  specific activity as substrate of PGR3/ZADH2: no specific activity was detected

## O=c1c(O)c(-c2ccccc2)oc2cc(O)cc(O)c12 [Compound 8]
Human PGR3/ZADH2
  activity at 50 µM: 25.6%
Mouse PGR3/ZADH2
  activity at 50 µM: 11.4%

## CCCCCC(=O)/C=C/[C@@H]1[C@@H](CCCCCCC(=O)O)[C@@H](O)C[C@H]1O [15-keto PGF1αL, 15-keto PGF1α]
PGR3/ZADH2
  specific activity as substrate of PGR3/ZADH2: reacted specifically

## CCCCCC(=O)/C=C/[C@@H]1[C@@H](C/C=C\CCCC(=O)O)[C@@H](O)C[C@H]1O [15-keto PGF2α]
PGR3/ZADH2
  specific activity as substrate of PGR3/ZADH2: reacted specifically
Endogenous PPAR
  endogenous PPAR activity (reporter gene): enhanced endogenous PPAR activity significantly
PPAR-gamma
  activation of PPAR-gamma (GAL4 fusion, luciferase reporter): activated PPAR-gamma
